Assays:
Assay in all cases: relative viability (nuclei count vs DMSO), 5 days (fraction); higher = more cells survive
Omipalisib + Palbociclib = compound: COc1ncc(-c2ccc3nccc(-c4ccnnc4)c3c2)cc1NS(=O)(=O)c1ccc(F)cc1F [Omipalisib] + CC(=O)c1c(C)c2cnc(Nc3ccc(N4CCNCC4)cn3)nc2n(C2CCCC2)c1=O [Palbociclib] (partner 0.5 µM)
Outline: (§1)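 One day after seeding in 1536-well plates, lung cancer cell lines were dosed by pin tool. Dosing was either single-drug or a fixed anchor-drug dose plus five library-drug doses (not always all listed) in √10 steps. After 5 days, nuclei were stained in one fix-and-stain step and counted on 4× images, and relative viability is the nuclei count of treated wells over that of vehicle wells, given as the median of duplicate plates.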

Omipalisib + OSI-027 = compound: COc1ncc(-c2ccc3nccc(-c4ccnnc4)c3c2)cc1NS(=O)(=O)c1ccc(F)cc1F [Omipalisib] + COc1cccc2cc(-c3nc([C@H]4CC[C@H](C(=O)O)CC4)n4ncnc(N)c34)[nH]c12 [OSI-027] (partner 0.5 µM)
Outline: as §1

Omipalisib + Tozasertib = compound: COc1ncc(-c2ccc3nccc(-c4ccnnc4)c3c2)cc1NS(=O)(=O)c1ccc(F)cc1F [Omipalisib] + Cc1cc(Nc2cc(N3CCN(C)CC3)nc(Sc3ccc(NC(=O)C4CC4)cc3)n2)n[nH]1 [Tozasertib] (partner 0.1 µM)
Outline: as §1

Omipalisib + Vorinostat = compound: COc1ncc(-c2ccc3nccc(-c4ccnnc4)c3c2)cc1NS(=O)(=O)c1ccc(F)cc1F [Omipalisib] + O=C(CCCCCCC(=O)Nc1ccccc1)NO [Vorinostat] (partner 1 µM)
Outline: as §1

Omipalisib + Trametinib = compound: COc1ncc(-c2ccc3nccc(-c4ccnnc4)c3c2)cc1NS(=O)(=O)c1ccc(F)cc1F [Omipalisib] + CC(=O)Nc1cccc(-n2c(=O)n(C3CC3)c(=O)c3c(Nc4ccc(I)cc4F)n(C)c(=O)c(C)c32)c1 [Trametinib] (partner 0.02 µM)
Outline: as §1

Omipalisib + AZD7762 = compound: COc1ncc(-c2ccc3nccc(-c4ccnnc4)c3c2)cc1NS(=O)(=O)c1ccc(F)cc1F [Omipalisib] + NC(=O)Nc1cc(-c2cccc(F)c2)sc1C(=O)N[C@H]1CCCNC1 [AZD7762] (partner 0.2 µM)
Outline: as §1

Omipalisib + Decitabine = compound: COc1ncc(-c2ccc3nccc(-c4ccnnc4)c3c2)cc1NS(=O)(=O)c1ccc(F)cc1F [Omipalisib] + Nc1ncn([C@H]2C[C@H](O)[C@@H](CO)O2)c(=O)n1 [Decitabine] (partner 2 µM)
Outline: as §1

Omipalisib + Olaparib = compound: COc1ncc(-c2ccc3nccc(-c4ccnnc4)c3c2)cc1NS(=O)(=O)c1ccc(F)cc1F [Omipalisib] + O=C(c1cc(Cc2n[nH]c(=O)c3ccccc23)ccc1F)N1CCN(C(=O)C2CC2)CC1 [Olaparib] (partner 8 µM)
Outline: as §1

Omipalisib + Pemetrexed = compound: COc1ncc(-c2ccc3nccc(-c4ccnnc4)c3c2)cc1NS(=O)(=O)c1ccc(F)cc1F [Omipalisib] + Nc1nc2[nH]cc(CCc3ccc(C(=O)N[C@@H](CCC(=O)O)C(=O)O)cc3)c2c(=O)[nH]1 [Pemetrexed] (partner 0.2 µM)
Outline: as §1

Omipalisib = compound: COc1ncc(-c2ccc3nccc(-c4ccnnc4)c3c2)cc1NS(=O)(=O)c1ccc(F)cc1F [Omipalisib]
Outline: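 Viability was read as treated-well nuclei divided by vehicle-well nuclei, using the median across plates. Lung cancer cell lines in 1536-well plates were kept overnight at 37 °C, pinned with five √10-spaced library-drug doses, and after 5 days were Hoechst-stained, imaged at 4× and counted in MetaXpress. Plates passed only with control CV below 25% and at least one doubling.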

Omipalisib + Pictilisib = compound: COc1ncc(-c2ccc3nccc(-c4ccnnc4)c3c2)cc1NS(=O)(=O)c1ccc(F)cc1F [Omipalisib] + CS(=O)(=O)N1CCN(Cc2cc3nc(-c4cccc5[nH]ncc45)nc(N4CCOCC4)c3s2)CC1 [Pictilisib] (partner 1 µM)
Outline: as §1

Omipalisib + Navitoclax = compound: COc1ncc(-c2ccc3nccc(-c4ccnnc4)c3c2)cc1NS(=O)(=O)c1ccc(F)cc1F [Omipalisib] + CC1(C)CCC(c2ccc(Cl)cc2)=C(CN2CCN(c3ccc(C(=O)NS(=O)(=O)c4ccc(N[C@H](CCN5CCOCC5)CSc5ccccc5)c(S(=O)(=O)C(F)(F)F)c4)cc3)CC2)C1 [Navitoclax] (partner 0.5 µM)
Outline: as §1

Omipalisib + Foretinib = compound: COc1ncc(-c2ccc3nccc(-c4ccnnc4)c3c2)cc1NS(=O)(=O)c1ccc(F)cc1F [Omipalisib] + COc1cc2c(Oc3ccc(NC(=O)C4(C(=O)Nc5ccc(F)cc5)CC4)cc3F)ccnc2cc1OCCCN1CCOCC1 [Foretinib] (partner 0.25 µM)
Outline: as §1

Omipalisib + Bortezomib = compound: COc1ncc(-c2ccc3nccc(-c4ccnnc4)c3c2)cc1NS(=O)(=O)c1ccc(F)cc1F [Omipalisib] + CC(C)C[C@H](NC(=O)[C@H](Cc1ccccc1)NC(=O)c1cnccn1)B(O)O [Bortezomib] (partner 0.002 µM)
Outline: as §1

Omipalisib + Alpelisib = compound: COc1ncc(-c2ccc3nccc(-c4ccnnc4)c3c2)cc1NS(=O)(=O)c1ccc(F)cc1F [Omipalisib] + Cc1nc(NC(=O)N2CCC[C@H]2C(N)=O)sc1-c1ccnc(C(C)(C)C(F)(F)F)c1 [Alpelisib] (partner 2 µM)
Outline: as §1

Omipalisib + Lapatinib = compound: COc1ncc(-c2ccc3nccc(-c4ccnnc4)c3c2)cc1NS(=O)(=O)c1ccc(F)cc1F [Omipalisib] + CS(=O)(=O)CCNCc1ccc(-c2ccc3ncnc(Nc4ccc(OCc5cccc(F)c5)c(Cl)c4)c3c2)o1 [Lapatinib] (partner 2 µM)
Outline: as §1

Omipalisib + Linsitinib = compound: COc1ncc(-c2ccc3nccc(-c4ccnnc4)c3c2)cc1NS(=O)(=O)c1ccc(F)cc1F [Omipalisib] + C[C@]1(O)C[C@@H](c2nc(-c3ccc4ccc(-c5ccccc5)nc4c3)c3c(N)nccn32)C1 [Linsitinib] (partner 1 µM)
Outline: as §1

Omipalisib + Crizotinib = compound: COc1ncc(-c2ccc3nccc(-c4ccnnc4)c3c2)cc1NS(=O)(=O)c1ccc(F)cc1F [Omipalisib] + C[C@@H](Oc1cc(-c2cnn(C3CCNCC3)c2)cnc1N)c1c(Cl)ccc(F)c1Cl [Crizotinib] (partner 1 µM)
Outline: as §1

Omipalisib + Phenformin = compound: COc1ncc(-c2ccc3nccc(-c4ccnnc4)c3c2)cc1NS(=O)(=O)c1ccc(F)cc1F [Omipalisib] + N=C(N)NC(=N)NCCc1ccccc1 [Phenformin] (partner 250 µM)
Outline: as §1

NCI-H1648
relative viability (Omipalisib + Palbociclib; first compound 0.0003 µM): 0.277 | relative viability (Omipalisib + Palbociclib; first compound 0.003 µM): 0.23 | relative viability (Omipalisib + Palbociclib; first compound 0.03 µM): 0.29 | relative viability (Omipalisib + OSI-027; first compound 0.0003 µM): 0.253 | relative viability (Omipalisib + OSI-027; first compound 0.003 µM): 0.291 | relative viability (Omipalisib + OSI-027; first compound 0.03 µM): 0.26 | relative viability (Omipalisib + Tozasertib; first compound 0.0003 µM): 0.322 | relative viability (Omipalisib + Tozasertib; first compound 0.003 µM): 0.408 | relative viability (Omipalisib + Tozasertib; first compound 0.03 µM): 0.184 | relative viability (Omipalisib + Vorinostat; first compound 0.0003 µM): 0.548 | relative viability (Omipalisib + Vorinostat; first compound 0.003 µM): 0.396 | relative viability (Omipalisib + Vorinostat; first compound 0.03 µM): 0.228 | relative viability (Omipalisib + Trametinib; first compound 0.0003 µM): 0.362 | relative viability (Omipalisib + Trametinib; first compound 0.003 µM): 0.407 | relative viability (Omipalisib + Trametinib; first compound 0.03 µM): 0.249 | relative viability (Omipalisib + AZD7762; first compound 0.0003 µM): 0.644 | relative viability (Omipalisib + AZD7762; first compound 0.003 µM): 0.843 | relative viability (Omipalisib + AZD7762; first compound 0.03 µM): 0.386 | relative viability (Omipalisib + Decitabine; first compound 0.0003 µM): 0.445 | relative viability (Omipalisib + Decitabine; first compound 0.003 µM): 0.363 | relative viability (Omipalisib + Decitabine; first compound 0.03 µM): 0.356 | relative viability (Omipalisib + Olaparib; first compound 0.0003 µM): 0.384 | relative viability (Omipalisib + Olaparib; first compound 0.003 µM): 0.392 | relative viability (Omipalisib + Olaparib; first compound 0.03 µM): 0.202 | relative viability (Omipalisib + Pemetrexed; first compound 0.0003 µM): 0.754 | relative viability (Omipalisib + Pemetrexed; first compound 0.003 µM): 0.619 | relative viability (Omipalisib + Pemetrexed; first compound 0.03 µM): 0.413 | relative viability (Omipalisib; 0.0003 µM): 0.913 | relative viability (Omipalisib; 0.003 µM): 0.504 | relative viability (Omipalisib; 0.03 µM): 0.278

NCI-H1703
relative viability (Omipalisib + Pictilisib; first compound 0.0003 µM): 0.218 | relative viability (Omipalisib + Pictilisib; first compound 0.003 µM): 0.238 | relative viability (Omipalisib + Pictilisib; first compound 0.03 µM): 0.202 | relative viability (Omipalisib + Navitoclax; first compound 0.0003 µM): 0.713 | relative viability (Omipalisib + Navitoclax; first compound 0.003 µM): 0.651 | relative viability (Omipalisib + Navitoclax; first compound 0.03 µM): 0.24 | relative viability (Omipalisib + Foretinib; first compound 0.0003 µM): 0.314 | relative viability (Omipalisib + Foretinib; first compound 0.003 µM): 0.37 | relative viability (Omipalisib + Foretinib; first compound 0.03 µM): 0.301 | relative viability (Omipalisib + Bortezomib; first compound 0.0003 µM): 0.323 | relative viability (Omipalisib + Bortezomib; first compound 0.003 µM): 0.268 | relative viability (Omipalisib + Bortezomib; first compound 0.03 µM): 0.153 | relative viability (Omipalisib + AZD7762; first compound 0.0003 µM): 0.152 | relative viability (Omipalisib + AZD7762; first compound 0.003 µM): 0.115 | relative viability (Omipalisib + AZD7762; first compound 0.03 µM): 0.111 | relative viability (Omipalisib + Alpelisib; first compound 0.0003 µM): 0.428 | relative viability (Omipalisib + Alpelisib; first compound 0.003 µM): 0.273 | relative viability (Omipalisib + Alpelisib; first compound 0.03 µM): 0.179 | relative viability (Omipalisib + Lapatinib; first compound 0.0003 µM): 0.879 | relative viability (Omipalisib + Lapatinib; first compound 0.003 µM): 0.715 | relative viability (Omipalisib + Lapatinib; first compound 0.03 µM): 0.293 | relative viability (Omipalisib + Olaparib; first compound 0.0003 µM): 0.28 | relative viability (Omipalisib + Olaparib; first compound 0.003 µM): 0.279 | relative viability (Omipalisib + Olaparib; first compound 0.03 µM): 0.214 | relative viability (Omipalisib + Linsitinib; first compound 0.0003 µM): 0.596 | relative viability (Omipalisib + Linsitinib; first compound 0.003 µM): 0.298 | relative viability (Omipalisib + Linsitinib; first compound 0.03 µM): 0.171 | relative viability (Omipalisib + Crizotinib; first compound 0.0003 µM): 0.707 | relative viability (Omipalisib + Crizotinib; first compound 0.003 µM): 0.418 | relative viability (Omipalisib + Crizotinib; first compound 0.03 µM): 0.128 | relative viability (Omipalisib; 0.0003 µM): 0.777 | relative viability (Omipalisib; 0.003 µM): 0.572 | relative viability (Omipalisib; 0.03 µM): 0.234

A549
relative viability (Omipalisib + Pictilisib; first compound 0.0003 µM): 0.457 | relative viability (Omipalisib + Pictilisib; first compound 0.003 µM): 0.454 | relative viability (Omipalisib + Pictilisib; first compound 0.03 µM): 0.254 | relative viability (Omipalisib + Navitoclax; first compound 0.0003 µM): 1.07 | relative viability (Omipalisib + Navitoclax; first compound 0.003 µM): 0.91 | relative viability (Omipalisib + Navitoclax; first compound 0.03 µM): 0.437 | relative viability (Omipalisib + Foretinib; first compound 0.0003 µM): 0.892 | relative viability (Omipalisib + Foretinib; first compound 0.003 µM): 0.838 | relative viability (Omipalisib + Foretinib; first compound 0.03 µM): 0.319 | relative viability (Omipalisib + Decitabine; first compound 0.0003 µM): 0.304 | relative viability (Omipalisib + Decitabine; first compound 0.003 µM): 0.224 | relative viability (Omipalisib + Decitabine; first compound 0.03 µM): 0.176 | relative viability (Omipalisib + Alpelisib; first compound 0.0003 µM): 0.665 | relative viability (Omipalisib + Alpelisib; first compound 0.003 µM): 0.55 | relative viability (Omipalisib + Alpelisib; first compound 0.03 µM): 0.179 | relative viability (Omipalisib + Lapatinib; first compound 0.0003 µM): 0.912 | relative viability (Omipalisib + Lapatinib; first compound 0.003 µM): 0.715 | relative viability (Omipalisib + Lapatinib; first compound 0.03 µM): 0.227 | relative viability (Omipalisib + Olaparib; first compound 0.0003 µM): 0.206 | relative viability (Omipalisib + Olaparib; first compound 0.003 µM): 0.174 | relative viability (Omipalisib + Olaparib; first compound 0.03 µM): 0.0441 | relative viability (Omipalisib + Linsitinib; first compound 0.0003 µM): 0.438 | relative viability (Omipalisib + Linsitinib; first compound 0.003 µM): 0.421 | relative viability (Omipalisib + Linsitinib; first compound 0.03 µM): 0.218 | relative viability (Omipalisib + Phenformin; first compound 0.0003 µM): 0.157 | relative viability (Omipalisib + Phenformin; first compound 0.003 µM): 0.113 | relative viability (Omipalisib + Phenformin; first compound 0.03 µM): 0.0802 | relative viability (Omipalisib + Crizotinib; first compound 0.0003 µM): 0.64 | relative viability (Omipalisib + Crizotinib; first compound 0.003 µM): 0.531 | relative viability (Omipalisib + Crizotinib; first compound 0.03 µM): 0.139 | relative viability (Omipalisib; 0.0003 µM): 0.923 | relative viability (Omipalisib; 0.003 µM): 0.625 | relative viability (Omipalisib; 0.03 µM): 0.323

Source: the supplement of paper PMC10307832
